Experimental data published in patent publication US9463189B2 (BPV Holdings, LLC, priority 2007, dated 2016).
Where a name gives a salt, the structure may show the parent alone.

Tests used:
Format in all cases: in vivo, C57B1/6J mice
NASH mice = assay: Hepatic steatosis / lipid accumulation in liver, Oil Red O stain image analysis
From the text: (§1) Early Steatosis Model: C57B1/6J mice (22-39 days old) mice were used for the study. Mice were fed normal chow food (Lab Diet, 5P14Prolab Animal Diet, PMI Nutritional International, Brentwood, Mo., Cat# RMH 2500) or 58% high fat diet (HFD, 58 kcal % fat and corn starch with purple dye, Research Diets, New Brunswick, N.J., Cat# D12330 equivalent to Western diet) for 120-150 days. […] This group is referred to as the HFD-low body group in FIG. 1A (insulin & liver fat accumulation˜normal). On the other hand, one fifth of the mice gained 60-70% higher body weight (compared to normal chow fed mice) while on the same HFD diet (NASH group, very high insulin and liver fat) further shown in FIG. 1A. The majority of the mice (three fifths) gained body weight as expected on the HFD (30-40% higher than the normal chow fed mice) and is referred to as the DIO group (normal to moderately high insulin and liver fat accumulation) as shown in FIG. 1A. Control animals (n=5) representative of the HFD-low body weight and the NASH groups were sacrificed prior to starting the rest of the animals on treatment with the Compound 2 (5 or 10 mg/Kg/day). Liver, white adipose and muscle from the sacrificed mice were collected for histology performed on the liver tissue.
The development of NASH was further confirmed using histological analyses of liver. The sections were analyzed for 1) hepatic steatosis 2) necroinflammation, and 3) fibrosis. Histological analyses of hepatic steatosis was assessed by quantitative image analysis of Oil Red O stain in liver sections and defined as the percentage of Oil Red ‘O’ positive area relative to the total image area.
(§2) Following 120-150 days on the HFD, mice in the NASH group were treated with Compound 2 (5 or 10 mg/Kg/day) or vehicle (10% Encapsin) for 42 days. Fasting and post prandial (PP) blood draws were taken at the beginning of the study (compound treatment) to identify and confirm the NASH group and during the study to evaluate various pharmacological responses. Since the NASH mice are severely hyperinsulinemic compared to NC mice, glucose tolerance testing (GTT, measures peripheral insulin resistance) was performed to evaluate the effect of Compound 2 on improvement of peripheral insulin sensitivity. Treatment was administered for 42 days (separate experiments). Body weight and food intake was measured throughout the study.
Staining was prepared with Oil Red ‘O’ that stains fat deposits red on frozen tissues where positive staining indicates lipid accumulation. Trichrome staining was used to illuminate fibrosis; collagen deposits appear blue and positive staining indicates fibrosis.

liver of NASH mice = assay: Liver gene expression by Affymetrix microarray in NASH mice; conditions: liver mRNA, 10 mg/kg/day, 35 days
Description: Gene expression was analyzed using Affynmatrix microarray followed by GOBY software analyses. Data (Table 5, below) represent average fold change in gene expression in the Compound 2/vehicle group.
Gene expression was analyzed using Affynmatrix microarray followed by GOBY software analyses. Data (Table 6, below) represent average fold change in gene expression in the Compound 2/vehicle group.
Animals were placed in Surgivet/ANESCO ISOTECY chamber (Vetequip Incorporated, Waukesha, Wis.) filled with Isoflurane (1-chloro-2,2,2-trifluoroethyl difluoromethyl ether, CAS#26675-46-7), USP Liquid for Inhalation (Baxter, Deerfield, Ill., Cat #10019-360-40) for anesthetization. Cardiac blood is taken with BD 1 mL Syringe Tuberculin Slip Tip (Becton, Dickinson & Company, Franklin Lakes, N.J., Cat #309602) with B-D25G 5/8 needle (Becton Dickinson, Franklin Lakes, N.J., Cat #305122) and was saved into Microtainer brand tube with EDTA (Becton, Dickinson and Company, Cat #365973). The heart, liver, kidney, adipose (white and brown) and muscle were collected using fine forceps and fine scissors. Tissues were stored in aluminum foils and flash frozen in liquid nitrogen for further analyses. ˜100 mg of heart, liver, adipose (white) were saved in tubes containing 1 mL RNAlater RNA Stabilization Reagent (Qiagen, Valencia, Calif., Cat #76106) and flash frozen in liquid nitrogen for gene array analyses. The liver, muscle and adipose (white) were fixed in 10% Zinc Formalin (Fisher Diagnostics, Middletown, Va., Cat#032-065, CAS #50-00-0) for histology analyses. In addition, the liver and muscle were frozen in Cryomold Standard Disposable Specimen Mold 25 mm×20 mm×5 mm (Sakura Finetechnical U.S.A., Inc., Torrance, Calif., Cat #4557) with O.C.T Compound (Sakura Finetechnical U.S.A., Inc., Torrance, Calif., Cat #4583) and frozen on dry ice mixed with 2-Methylbutane (Isopentane) (Sigma-Aldrich, St. Louis, Mo., CAS #78-78-4, Cat #270342-2L.
Total RNA was extracted using the RNeasy mini protocol (Qiagen, Cat: 74106), gene array analyses was performed using Mouse Genome 430.2.0 Affymetrix CHIP and VAMPIRE analyses software at the Veterans Affair, UCSD core facility, UCSD, San Diego, Calif.

MCP-1 = MCP-1 in plasma and liver lysates (immunoassay)
Description: as §2
Insulin fasting plasma samples were tested using Mercodia ultra sensitive mouse insulin ELISA: 2.5 μL EDTA plasma, ALPCO Diagnostics, Uppsala, Sweden, Cat #08-10-1150-99, LOQ (0.22-7.1 μg/L). Mouse JE/MCP-1 post prandial samples were collected at sacrifice. 12.5 μL EDTA plasma, R & D Systems, Minneapolis, Minn., Cat # MFE00, LOQ (15.6-1000 pg/mL).

[1] = Body weight loss in NASH mice; conditions: oral administration, p<0.05 vs. vehicle
From the text: as §1, with “Liver, white adipose and muscle from the sacrificed mice were collected for histology performed on the liver tissue.” left out
Following 120-150 days on the HFD, mice in the NASH group were treated with Compound 2 (5 or 10 mg/Kg/day) or vehicle (10% Encapsin) for 42 days. […] Body weight and food intake was measured throughout the study.

For C[C@@H]1CN(Cc2ccc(OC(F)(F)F)cc2)C[C@H](C)N1S(=O)(=O)c1cccc2c1C[C@@H](C(=O)O)C2 [Compound 2, (S)-4-[cis-2,6-Dimethyl-4-(4-trifluoromethoxy-benzyl)-piperazine-1-sulfonyl]-indan-2-carboxylic acid tosylate], the “fat accumulation in the livers of treated vs. non-treated NASH mice” value (NASH mice; 42 days of 10 mg/kg/day) was “reduced fat accumulation”, the “Percent Field Area, Lipid (stained oil deposits)” value (NASH mice; HFD + Compound 2, 10 mg/kg, 42 days, liver sections, HFD + Vehicle 47.7% +/− 5.5) was 16.0% +/− 7.6 and the “Percent Field Area, Cytoplasm” value (NASH mice; HFD + Compound 2, 10 mg/kg, 42 days, liver sections, HFD + Vehicle 91% +/− 2.4) was 38.6% +/− 2.3. For the same compound, the “reduced lipid accumulation in the liver” value (NASH mice; oral administration, NASH mice, p<0.03 vs. vehicle) was 32%, the “S100 A6 (inflammatory marker) gene expression vs. vehicle” value (liver of NASH mice) was “reduction” and the “CD14 (Monocyte/Macrophage marker) gene expression, Fold change over vehicle” value (liver of NASH mice; 4 hours post dosing, fed state) was −2 fold. For the same compound, the “GADD45 (Inflammatory marker) gene expression, Fold change over vehicle” value (liver of NASH mice; 4 hours post dosing, fed state) was 8 fold, the “ICAM 1 (Inflammatory marker) gene expression, Fold change over vehicle” value (liver of NASH mice; 4 hours post dosing, fed state) was −2.1 fold and the “MARCO (Monocyte/Macrophage marker) gene expression, Fold change over vehicle” value (liver of NASH mice; 4 hours post dosing, fed state) was −2.5 fold. The “Orosomucoid 2 (Acute Phase Reactant Protein) gene expression, Fold change over vehicle” value (liver of NASH mice; 4 hours post dosing, fed state) was −2.4 fold, the “Serum myeloid A1 (Acute Phase Reactant Protein) gene expression, Fold change over vehicle” value (liver of NASH mice; 4 hours post dosing, fed state) was −1.9 fold and the “Serum myeloid A2 (Acute Phase Reactant Protein) gene expression, Fold change over vehicle” value (liver of NASH mice; 4 hours post dosing, fed state) was −2.2 fold. The “CTGF gene expression, Fold change over vehicle” value (liver of NASH mice; 4 hours post dosing, fed state) was “Not changed”, the “Col1a1 gene expression, Fold change over vehicle” value (liver of NASH mice; 4 hours post dosing, fed state) was −6.3 fold and the “Col1a2 gene expression, Fold change over vehicle” value (liver of NASH mice; 4 hours post dosing, fed state) was −3 fold. For the same compound, the “Col3a1 gene expression, Fold change over vehicle” value (liver of NASH mice; 4 hours post dosing, fed state) was −3 fold, the “Col5a2 gene expression, Fold change over vehicle” value (liver of NASH mice; 4 hours post dosing, fed state) was −2.2 fold and the “Col6a2 gene expression, Fold change over vehicle” value (liver of NASH mice; 4 hours post dosing, fed state) was −8.9 fold. For the same compound, the “Fibronectin gene expression, Fold change over vehicle” value (liver of NASH mice; 4 hours post dosing, fed state) was “Not changed”, the “Timp 1 gene expression, Fold change over vehicle” value (liver of NASH mice; 4 hours post dosing, fed state) was −4.5 fold and the “Timp 2 gene expression, Fold change over vehicle” value (liver of NASH mice; 4 hours post dosing, fed state) was “Not changed”. The “Vimentin gene expression, Fold change over vehicle” value (liver of NASH mice; 4 hours post dosing, fed state) was −2.3 fold, the “reduction of MCP-1 levels in plasma, treated vs. untreated mice” value (MCP-1; 42 days of 5 mg/kg/day, p<0.006) was 34% and the “reduction of MCP-1 levels in the liver lysates, treated vs. untreated mice” value (MCP-1; 42 days of 5 mg/kg/day, trend, p=0.08) was 31%. For the same compound, the “levels of plasma MCP-1” value (MCP-1; oral administration, NASH mice, p<0.05 vs. vehicle) was “normalized levels” and the weight loss [1] was “increased weight loss”.
